What was measured:
[1] = target: T1, 5-hydroxytryptamine receptor 2C (Homo sapiens, UniProt P28335)
T1 sequence (P28335 whole entry): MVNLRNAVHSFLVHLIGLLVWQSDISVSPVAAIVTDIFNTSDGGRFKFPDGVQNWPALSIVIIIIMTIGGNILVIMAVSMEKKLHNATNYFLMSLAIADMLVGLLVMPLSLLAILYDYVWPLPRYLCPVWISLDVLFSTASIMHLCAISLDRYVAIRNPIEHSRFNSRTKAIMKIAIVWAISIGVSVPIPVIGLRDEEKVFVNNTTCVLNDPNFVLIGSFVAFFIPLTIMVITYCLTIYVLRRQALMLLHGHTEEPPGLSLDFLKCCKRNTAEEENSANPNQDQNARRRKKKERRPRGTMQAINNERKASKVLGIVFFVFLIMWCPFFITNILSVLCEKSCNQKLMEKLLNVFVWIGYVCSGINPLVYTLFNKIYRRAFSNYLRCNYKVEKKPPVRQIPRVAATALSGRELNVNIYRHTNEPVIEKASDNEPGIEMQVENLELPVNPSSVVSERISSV

[2] = target: T2, Alpha-1B adrenergic receptor (Homo sapiens, UniProt P35368)
T2 sequence (P35368 whole entry): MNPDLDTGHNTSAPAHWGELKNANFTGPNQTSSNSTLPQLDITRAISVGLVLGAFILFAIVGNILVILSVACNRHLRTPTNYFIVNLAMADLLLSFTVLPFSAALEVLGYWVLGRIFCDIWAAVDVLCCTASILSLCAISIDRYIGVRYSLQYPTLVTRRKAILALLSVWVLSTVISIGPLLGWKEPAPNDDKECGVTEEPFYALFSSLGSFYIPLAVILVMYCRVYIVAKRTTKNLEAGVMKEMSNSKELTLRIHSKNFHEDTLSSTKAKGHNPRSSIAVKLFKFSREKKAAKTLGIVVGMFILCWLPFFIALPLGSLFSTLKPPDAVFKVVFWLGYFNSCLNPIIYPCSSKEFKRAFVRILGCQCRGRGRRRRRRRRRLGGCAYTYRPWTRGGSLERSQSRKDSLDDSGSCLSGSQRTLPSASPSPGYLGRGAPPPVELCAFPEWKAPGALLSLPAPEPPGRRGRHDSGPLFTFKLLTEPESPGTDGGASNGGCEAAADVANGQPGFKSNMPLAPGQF

[3] = target: 5-hydroxytryptamine receptor 1E (Homo sapiens, UniProt P28566)
[4] = target: 5-hydroxytryptamine receptor 6 (Homo sapiens, UniProt P50406)
[5] = target: 5-hydroxytryptamine receptor 2A (Homo sapiens, UniProt P28223)
Sequence of 5-hydroxytryptamine receptor 2A (P28223 whole entry): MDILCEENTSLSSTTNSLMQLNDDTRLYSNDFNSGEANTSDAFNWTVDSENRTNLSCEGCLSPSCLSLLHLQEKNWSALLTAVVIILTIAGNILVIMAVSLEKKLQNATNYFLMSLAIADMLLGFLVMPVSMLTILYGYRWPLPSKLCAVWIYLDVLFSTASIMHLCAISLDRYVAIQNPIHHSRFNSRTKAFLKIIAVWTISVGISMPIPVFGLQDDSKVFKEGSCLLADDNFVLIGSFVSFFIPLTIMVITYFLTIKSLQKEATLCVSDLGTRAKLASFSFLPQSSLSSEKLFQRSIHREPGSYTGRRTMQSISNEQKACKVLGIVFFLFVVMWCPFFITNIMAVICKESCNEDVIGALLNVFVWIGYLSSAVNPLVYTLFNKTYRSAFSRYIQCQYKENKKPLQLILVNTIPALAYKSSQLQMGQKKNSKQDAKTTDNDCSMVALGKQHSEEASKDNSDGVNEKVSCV

Sequence of 5-hydroxytryptamine receptor 6 (P50406 whole entry): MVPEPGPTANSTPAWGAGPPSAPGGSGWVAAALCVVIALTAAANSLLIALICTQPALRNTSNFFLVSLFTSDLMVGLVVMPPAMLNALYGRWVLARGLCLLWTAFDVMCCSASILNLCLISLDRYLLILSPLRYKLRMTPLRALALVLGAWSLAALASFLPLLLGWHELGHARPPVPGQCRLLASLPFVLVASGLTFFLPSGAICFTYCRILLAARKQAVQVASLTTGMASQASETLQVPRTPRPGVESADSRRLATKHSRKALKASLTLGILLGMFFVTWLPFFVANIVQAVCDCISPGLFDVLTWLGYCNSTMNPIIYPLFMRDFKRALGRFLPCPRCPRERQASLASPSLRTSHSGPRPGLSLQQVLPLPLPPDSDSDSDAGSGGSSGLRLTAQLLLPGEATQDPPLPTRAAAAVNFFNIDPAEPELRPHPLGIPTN
Sequence of 5-hydroxytryptamine receptor 1E (P28566 whole entry): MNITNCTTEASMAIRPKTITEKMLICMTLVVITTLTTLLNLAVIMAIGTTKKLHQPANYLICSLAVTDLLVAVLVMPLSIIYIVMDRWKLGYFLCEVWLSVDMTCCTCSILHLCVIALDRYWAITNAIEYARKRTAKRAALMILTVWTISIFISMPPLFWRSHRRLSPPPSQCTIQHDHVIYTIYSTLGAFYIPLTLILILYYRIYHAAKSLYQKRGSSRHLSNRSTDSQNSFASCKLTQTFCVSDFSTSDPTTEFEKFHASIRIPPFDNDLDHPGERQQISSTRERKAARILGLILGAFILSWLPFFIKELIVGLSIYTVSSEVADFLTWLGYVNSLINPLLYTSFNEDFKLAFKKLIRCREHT

Ki [1]: > 10 µM | Ki [2]: > 10 µM | Ki [3]: > 10 µM | Ki [4]: > 10 µM | Ki [5]: > 10 µM
SMILES: Cc1cccc(S(=O)(=O)N(C)[C@H](C)CCN2CCC(C)CC2)c1 [SB-258719]
